According to ChEMBL document CHEMBL5244235, “Diarylpentanoids with antitumor activity: A critical review of structure-activity relationship studies” (Eur J Med Chem, 2020):

Columns and labels:
[1] = tested on: AGS; test: Antiproliferative activity against human AGS cells assessed as cell growth inhibition measured upto 72 hrs by MTT assay; type: functional, cell-based
[2] = tested on: KYSE-30; test: Antiproliferative activity against human KYSE-30 cells assessed as cell growth inhibition measured upto 72 hrs by MTT assay; type: functional, cell-based; settings: KYSE-30, 72 h
[3] = tested on: MDA-MB-231; test: Antiproliferative activity against lung metastasis variant of human MDA-MB-231 cells assessed as cell growth inhibition; type: functional, cell-based
[4] = Antiproliferative activity against human MCF-10A cells assessed as cell growth inhibition; type: toxicity, cell-based
[5] = tested on: MDA-MB-231; test: Antiproliferative activity against human MDA-MB-231 cells assessed as cell growth inhibition; type: functional, cell-based
[6] = tested on: MCF7; test: Antiproliferative activity against human MCF7 cells assessed as cell growth inhibition; type: functional, cell-based
[7] = tested on: HCC1419; test: Antiproliferative activity against human HCC1419 cells assessed as cell growth inhibition; type: functional, cell-based
[8] = tested on: HCT-116; test: Antiproliferative activity against human HCT116 cells assessed as cell growth inhibition measured after 96 hrs; type: functional, cell-based; settings: HCT-116, 96 h
[9] = tested on: MG-63; test: Antiproliferative activity against human MG-63 cells assessed as cell viability by WST-1 assay; type: functional, cell-based
[10] = tested on: MDA-MB-231; test: Antiproliferative activity against human MDA-MB-231 cells assessed as cell viability by WST-1 assay; type: functional, cell-based
[11] = tested on: A549; test: Antiproliferative activity against human A549 cells assessed as cell viability by WST-1 assay; type: functional, cell-based
[12] = tested on: MDA-MB-468; test: Antiproliferative activity against human MDA-MB-468 cells assessed as cell viability by WST-1 assay; type: functional, cell-based
[13] = tested on: NCI-H23; test: Antiproliferative activity against human NCI-H23 cells assessed as cell viability by WST-1 assay; type: functional, cell-based
[14] = tested on: MV4-11; test: Antiproliferative activity against human MV4-11 cells assessed as cell viability by WST-1 assay; type: functional, cell-based
[15] = Antiproliferative activity against human MRC9 cells assessed as cell growth inhibition measured after 72 hrs by MTT assay; type: functional, cell-based; settings: MRC9, 72 h
[16] = tested on: Ca-Ski; test: Antiproliferative activity against human Ca-Ski cells assessed as cell growth inhibition measured after 72 hrs by MTT assay; type: functional, cell-based
[17] = tested on: HeLa; test: Antiproliferative activity against human HeLa cells assessed as cell growth inhibition measured after 72 hrs by MTT assay; type: functional, cell-based; settings: Homo sapiens, HeLa, 72 h
[18] = tested on: MDA-MB-231; test: Growth inhibition of human MDA-MB-231 cells measured after 72 hrs by microplate reader analysis; type: functional
[19] = Anti-angiogenesis activity in […] MS-1 cells assessed as cell growth inhibition; type: functional, cell-based
[20] = tested on: HUVEC; test: Anti-angiogenesis activity in HUVEC cells assessed as cell growth inhibition; type: functional, cell-based; settings: Homo sapiens
[21] = tested on: RPMI-7951; test: Growth inhibition of human RPMI-7951 cells measured after 72 hrs by microplate reader analysis; type: functional, cell-based
[22] = tested on: SVR; test: Anti-angiogenesis activity in mouse SVR cells assessed as cell growth inhibition; type: functional, cell-based
[23] = Cytotoxicity against mouse MS-1 cells assessed as cell growth inhibition by anti-angiogenisis screening assay; type: toxicity, cell-based
[24] = Cytotoxicity against HUVEC cells assessed as cell growth inhibition by anti-angiogenisis screening assay; type: toxicity, cell-based; settings: human
[25] = Cytotoxicity against mouse SVR cells assessed as cell growth inhibition by anti-angiogenisis screening assay; type: toxicity, cell-based
[26] = tested on: MCF7; test: Antiproliferative activity against human MCF7 cells assessed as cell growth inhibition measured after 72 hrs; type: functional, cell-based; settings: MCF7, 72 h
[27] = tested on: Huh-7; test: Antiproliferative activity against human Huh-7 cells assessed as cell growth inhibition measured after 72 hrs; type: functional, cell-based; settings: Huh-7, 72 h
[28] = tested on: HCT-116; test: Antiproliferative activity against human HCT-116 cells assessed as cell growth inhibition measured after 72 hrs; type: functional, cell-based; settings: HCT-116, 72 h
[29] = tested on: PC-3; test: Antiproliferative activity against human PC-3 cells assessed as cell growth inhibition measured after 72 hrs; type: functional, cell-based; settings: PC-3, 72 h
[30] = Antiproliferative activity against human OVK18 cells assessed as cell growth inhibition measured after 72 hrs; type: functional, cell-based; settings: OVK18, 72 h
[31] = tested on: DLD-1; test: Antiproliferative activity against human DLD-1 cells assessed as cell growth inhibition measured after 96 hrs; type: functional, cell-based; settings: DLD-1, 96 h
[32] = tested on: 8505C; test: Antiproliferative activity against human 8505C cells assessed as cell growth inhibition measured after 72 hrs; type: functional, cell-based
[33] = tested on: GCIY; test: Antiproliferative activity against human GCIY cells assessed as cell growth inhibition measured after 72 hrs; type: functional, cell-based
[34] = Antiproliferative activity against human PK-1 cells assessed as cell growth inhibition measured after 72 hrs; type: functional, cell-based; settings: PK-1, 72 h
[35] = Antiproliferative activity against human SH-10-TC cells assessed as cell growth inhibition measured after 72 hrs; type: functional, cell-based
[36] = tested on: A-431; test: Antiproliferative activity against human A-431 cells assessed as cell growth inhibition measured after 72 hrs; type: functional, cell-based; settings: A-431, 72 h
[37] = tested on: HuCCT-1; test: Antiproliferative activity against human HuCCT-1 cells assessed as cell growth inhibition measured after 72 hrs; type: functional, cell-based; settings: HuCCT-1, 72 h
[38] = tested on: DLD-1; test: Antiproliferative activity against human DLD-1 cells assessed as cell growth inhibition measured after 72 hrs; type: functional, cell-based; settings: DLD-1, 72 h
[39] = tested on: ACHN; test: Antiproliferative activity against human ACHN cells assessed as cell growth inhibition measured after 72 hrs; type: functional, cell-based
[40] = tested on: A549; test: Antiproliferative activity against human A549 cells assessed as cell growth inhibition measured after 72 hrs; type: functional, cell-based; settings: A549, 72 h
[41] = tested on: G-361; test: Antiproliferative activity against human G-361 cells assessed as cell growth inhibition measured after 72 hrs; type: functional, cell-based; settings: G-361, 72 h
[42] = tested on: HUVEC; test: Anti-angiogenesis activity in HUVEC cells; type: functional, cell-based; settings: Homo sapiens

C#CCOc1ccc(/C=C2\CCC/C(=C\c3ccc(OCC#C)c(OC)c3)C2=O)cc1OC
IC50 [1]: 560 nM
IC50 [2]: 3600 nM

CCN(CC)CCOc1ccc(C(=O)N2C/C(=C\c3ccccc3)C(=O)/C(=C/c3ccccc3)C2)cc1
IC50 [3]: 530 nM
IC50 [4]: 41000 nM
IC50 [5]: 720 nM
IC50 [6]: 1640 nM
IC50 [7]: 1460 nM

COc1cc(/C=C/C(=O)/C=C/c2cc(OC)c(OC)c(OC)c2)cc(OC)c1OC
IC50 [8]: 250 nM

C#CCOc1ccc(/C=C2\CCC/C(=C\c3ccc(OCC#C)cc3)C2=O)cc1
IC50 [1]: 720 nM
IC50 [2]: 3400 nM

COc1cc(/C=C2\CN(C(=O)C(C)C)C/C(=C\c3cc(OC)c(OC)c(OC)c3)C2=O)cc(OC)c1OC
IC50 [9]: 390 nM
IC50 [10]: 390 nM
IC50 [11]: 390 nM
IC50 [12]: 390 nM
IC50 [13]: 390 nM
IC50 [14]: 390 nM

Cc1ccc(/C=C2\CN(C(=O)c3ccc(OCCN(C)C)cc3)C/C(=C\c3ccc(C)cc3)C2=O)cc1
IC50 [3]: 530 nM
IC50 [4]: 41000 nM
IC50 [5]: 720 nM
IC50 [6]: 1640 nM
IC50 [7]: 1460 nM

O=C1/C(=C/c2ccccc2Cl)CNC/C1=C\c1ccccc1Cl
IC50 [9]: 390 nM
IC50 [10]: 390 nM
IC50 [11]: 390 nM
IC50 [12]: 390 nM
IC50 [13]: 390 nM
IC50 [14]: 390 nM

O=C1/C(=C/c2cccc(F)c2)CCC/C1=C\c1cccc(F)c1
EC50 [15]: 16400 nM
EC50 [16]: 6000 nM
EC50 [17]: 8300 nM

COc1cc(/C=C2\CN(C(C)=O)C/C(=C\c3cc(OC)c(OC)c(OC)c3)C2=O)cc(OC)c1OC
IC50 [9]: 390 nM
IC50 [10]: 390 nM
IC50 [11]: 390 nM
IC50 [12]: 390 nM
IC50 [13]: 390 nM
IC50 [14]: 390 nM

CCOc1ccc(/C=C2\CCC/C(=C\c3ccc(OCC)c(OC)c3)C2=O)cc1OC
IC50 [1]: 720 nM
IC50 [2]: 3400 nM

CN1C/C(=C\c2ccccc2O)C(=O)/C(=C/c2ccccc2O)C1
GI50 [18]: 900 nM
IC50 [19]: 1100 nM
IC50 [20]: 1100 nM
IC50 ([21]; RPMI-7951, 72 h): 900 nM
IC50 [22]: 1100 nM

O=C(/C=C/c1cccc(O)c1)/C=C/c1cccc(O)c1
GI50 [18]: 1000 nM
GI50 [23]: 3200 nM
GI50 [24]: 3200 nM
GI50 ([21]; RPMI-7951, time 72 hrs): 2300 nM
GI50 [25]: 3200 nM

O=C1/C(=C/c2ccccc2)CCC/C1=C\c1ccccc1 [2,6-DIBENZYLIDENECYCLOHEXANONE]
IC50 [26]: > 50000 nM
IC50 [27]: > 50000 nM
IC50 [28]: > 50000 nM
IC50 [29]: > 50000 nM
IC50 [30]: > 50000 nM
IC50 [31]: 3000 nM
IC50 [32]: > 50000 nM
IC50 [33]: > 50000 nM
IC50 [34]: > 50000 nM
IC50 [35]: > 50000 nM
IC50 [36]: > 50000 nM
IC50 [37]: > 50000 nM
IC50 [38]: > 50000 nM
IC50 [39]: > 50000 nM
IC50 [40]: > 50000 nM
IC50 [41]: > 50000 nM

CCN(CC)CCOc1cccc(C(=O)N2C/C(=C\c3ccccc3)C(=O)/C(=C/c3ccccc3)C2)c1
IC50 [3]: 530 nM
IC50 [4]: 41000 nM
IC50 [5]: 720 nM
IC50 [6]: 1640 nM
IC50 [7]: 1460 nM

COCOc1cc(/C=C/C(=O)CC(SCC(=O)OC)c2cc(OCOC)cc(OCOC)c2)cc(OCOC)c1 (stereo unspecified)
IC50 [42]: 400 nM

COc1ccc(/C=C/C(=O)/C=C/c2ccc(OC)c(OC)c2)cc1OC
IC50 [8]: 1500 nM
